Experimental data reported in PMC3090393, “New Noncovalent Inhibitors of Penicillin-Binding Proteins from Penicillin-Resistant Bacteria” (PLoS ONE, 2011).
Values after ≈ are worked out from the molar mass of the structure shown.

Key:
[1] = system: Bacillus subtilis ATCC 6633; assay: In-vitro antibacterial activity (MIC, broth microdilution); assay type: cell-based; conditions: ATCC6633
Experimental: (§1) Determination of the antibacterial activities was carried out on microtiter plates, in 200 µL (final volume) of Müeller-Hinton Broth (MHB), following EUCAST (European Committee on Antimicrobial Susceptibility testing)/CLSI (Clinical and Laboratory Standard Institute) recommended procedures, [25]. The compounds were solubilized in MHB, just before use. Inocula were prepared for each strain by resuspending isolated colonies from 18 h cultured plates. Equivalents of 0.5 Mac Farland turbidity standards (approximately 1×10^8 CFU mL^−1) were prepared in saline solution ([…]) and then diluted 200-fold in MBH.

[2] = system: Citrobacter freundii ATCC 8090; assay: as above; assay type: cell-based; conditions: ATCC8090
Experimental: as §1

[3] = system: Enterococcus faecalis ATCC 29212; assay: as above; assay type: cell-based; conditions: ATCC29212
Experimental: as §1

[4] = system: Enterococcus faecalis ATCC 7937; assay: as above; assay type: cell-based; conditions: ATCC7937
Experimental: as §1

[5] = system: Enterococcus faecium ATCC 19434; assay: as above; assay type: cell-based; conditions: ATCC19434
Experimental: as §1

[6] = system: Enterococcus hirae ATCC 8790; assay: as above; assay type: cell-based; conditions: ATCC8790
Experimental: as §1

[7] = system: Escherichia coli ATCC 8739; assay: as above; assay type: cell-based; conditions: ATCC8739
Experimental: as §1

[8] = system: Klebsiella pneumoniae ATCC 13883; assay: as above; assay type: cell-based; conditions: ATCC13883
Experimental: as §1

[9] = system: Listeria innocua ATCC 33090; assay: as above; assay type: cell-based; conditions: ATCC33090
Experimental: as §1

[10] = system: Listeria monocytogenes ATCC 14780; assay: as above; assay type: cell-based; conditions: ATCC14780
Experimental: as §1

[11] = system: Micrococcus luteus ATCC 9341; assay: as above; assay type: cell-based; conditions: ATCC9341
Experimental: as §1

[12] = system: Proteus mirabilis ATCC 29936; assay: as above; assay type: cell-based; conditions: ATCC29936
Experimental: as §1

[13] = system: Pseudomonas aeruginosa ATCC 27853; assay: as above; assay type: cell-based; conditions: ATCC27853
Experimental: as §1

[14] = system: Staphylococcus aureus ATCC 25923; assay: as above; assay type: cell-based; conditions: ATCC25923
Experimental: as §1

[15] = system: Staphylococcus aureus ATCC 43300 (MRSA); assay: as above; assay type: cell-based
Experimental: as §1

[16] = system: Staphylococcus aureus mp 1 (inducible MRSA); assay: as above; assay type: cell-based
Experimental: as §1

[17] = system: Staphylococcus epidermidis ATCC 12228; assay: as above; assay type: cell-based; conditions: ATCC12228
Experimental: as §1

[18] = system: Streptococcus pneumoniae ATCC 33400; assay: as above; assay type: cell-based; conditions: ATCC33400
Experimental: as §1

[19] = system: Streptococcus pneumoniae ATCC 49619; assay: as above; assay type: cell-based; conditions: ATCC49619
Experimental: as §1

[20] = system: Streptococcus pneumoniae D39; assay: as above; assay type: cell-based
Experimental: as §1

PBP2a = molecular target: T1, PBP2a (Staphylococcus aureus, UniProt P07944); assay: PBP2a enzymatic inhibition assay (fluorescein-labeled ampicillin, residual penicillin binding activity); assay type: biochemical, Staphylococcus aureus ATCC 43300; conditions: 4 h; residual activity of the enzyme at 1 mM inhibitor; 0.01% Triton X-100; mean of three experiments; read-out: PBP2a RA [%]
T1 construct: made in house
Experimental: (§2) PBP2a from Staphylococcus aureus ATCC 43300 and PBP5fm from Enterococcus faecium D63r were overproduced and purified as described previously, [18].
(§3) Each of the purified PBPs (2.5 µM) were first incubated with 1 mM potential inhibitor in 100 mM phosphate buffer, 0.01% Triton X-100[19], pH 7, for 4 h at 30°C. Then, 25 µM fluorescein-labeled ampicillin[20] was added to detect the residual penicillin binding activity (RA). The samples were further incubated for 30 min at 37°C in a total volume of 20 µL. Denaturation buffer was added (0.1 M Tris/HCl, pH 6.8, containing 25% glycerol, 2% SDS, 20% β-mercaptoethanol and 0.02% bromophenol blue) and the samples were heated to 100°C for 1 min. The samples were then loaded onto a 10% SDS-acrilamide gel (10×7 cm) and electrophoresis was performed for 45 min at 180 V (12 mA). Detection and quantification of the RAs were with Molecular Image FX equipment and Quantity One software (BioRad, Hercules, CA, USA). Three independent experiments were carried out for each inhibitor.

PBP2x 5204 = PBP2x 5204 (Streptococcus pneumoniae, UniProt P59676); assay: PBP2x 5204 enzymatic inhibition assay (S2d hydrolysis, DTNB); assay type: biochemical, Streptococcus pneumoniae strain 5204; conditions: residual activity of the enzyme at 1 mM inhibitor; 240 min
Experimental: PBP2x-5204 from Streptococcus pneumonia and N-benzoyl-D-alanyl-thioglycolate S2d[21], [22] were prepared as previously described. All assays with PBP2x 5204 were carried out in 96-well microtiter plates (Brand, Wertheim, Germany). PBP2x 5204 (0.6 µM) was incubated in the presence of the potential inhibitors in 10 mM sodium phosphate buffer (pH 7.0) containing 70 mM D-alanine and 0.01 mg/mL BSA, for 4 h at 25°C. This preincubation was used to also detect slow binding inhibitors. After the preincubation, the RA of PBP2x 5204 was determined. The initial rate of hydrolysis of 1 mM S2d in the presence of 1 mM DTNB was determined by monitoring the increase in absorbance at 412 nm (DTNB: ε[Δ ε] = […]) using a microplate absorbance reader (Power Wave X, Biotek Instruments, Winooski, U.S.A.). The rate of spontaneous hydrolysis of S2d in the presence of the potential inhibitors was also determined in the absence of PBP2x 5204. All of the assays were carried out in triplicate. The determination of the RA of PBP2x 5204 in the absence of inhibitors was carried out six times on each plate. A test compound was considered as an inhibitor if the RA was <80%. In this case, to reveal false positives, the assays were also carried out under the same conditions in the presence of 0.01% Triton X-100. As described in the literature, promiscuous inhibitors (false positives) are slow binding, noncompetitive inhibitors. To avoid detailed kinetic investigations, it is possible to identify such compounds by carrying out the assays in the presence of Triton X-100[14], [19]. Promiscuous inhibitors show no inhibition in the presence of Triton X-100. The IC50 values in the presence of Triton X-100 were determined if the RAs were <50%. (RA: ∼50%, IC50∼c, c: concentration of compound in the assay; RA >50%, IC50 > c). The RA was measured over a range of concentrations, from which the IC50 values were determined by non-linear regression analysis, using Sigma Plot (Systat software) and fitting the data to the equation y = y0+(a×b)/(b+x)[23].

PBP5fm = PBP5fm (Enterococcus faecium, UniProt Q47759); assay: PBP5fm enzymatic inhibition assay (fluorescein-labeled ampicillin, residual penicillin binding activity); assay type: biochemical, Enterococcus faecium D63r; conditions: for activity at 1000 µM: 4 h, residual activity of the enzyme at 1 mM inhibitor, 0.01% Triton X-100, read-out: PBP5fm RA [%]
Experimental: as §2, §3

[21] = system: panel of five Gram-negative and 15 Gram-positive bacterial strains; assay: In-vitro antibacterial activity (MIC), whole panel; assay type: cell-based; conditions: summary over the whole panel; read-out: MICs for all of the bacterial strains under investigation
Experimental: as §1

PBP5fm, sequence (Q47759 entry or part of it): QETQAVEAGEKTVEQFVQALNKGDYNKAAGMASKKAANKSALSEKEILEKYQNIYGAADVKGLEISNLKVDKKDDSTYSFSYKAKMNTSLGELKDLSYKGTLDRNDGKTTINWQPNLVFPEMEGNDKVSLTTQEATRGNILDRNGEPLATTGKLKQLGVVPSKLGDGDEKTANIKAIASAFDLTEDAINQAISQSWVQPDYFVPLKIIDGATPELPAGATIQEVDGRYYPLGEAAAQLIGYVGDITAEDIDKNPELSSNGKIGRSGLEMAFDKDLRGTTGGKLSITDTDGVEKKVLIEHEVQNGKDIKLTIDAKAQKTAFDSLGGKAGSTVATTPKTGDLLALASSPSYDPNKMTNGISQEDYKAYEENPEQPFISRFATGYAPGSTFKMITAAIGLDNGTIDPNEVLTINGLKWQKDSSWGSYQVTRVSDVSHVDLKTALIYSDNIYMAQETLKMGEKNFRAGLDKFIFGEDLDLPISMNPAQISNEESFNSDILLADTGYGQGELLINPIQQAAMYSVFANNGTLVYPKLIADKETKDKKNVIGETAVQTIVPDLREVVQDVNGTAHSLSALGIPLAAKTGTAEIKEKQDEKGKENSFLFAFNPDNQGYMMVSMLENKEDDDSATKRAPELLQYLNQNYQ
T1 sequence (P07944 whole entry): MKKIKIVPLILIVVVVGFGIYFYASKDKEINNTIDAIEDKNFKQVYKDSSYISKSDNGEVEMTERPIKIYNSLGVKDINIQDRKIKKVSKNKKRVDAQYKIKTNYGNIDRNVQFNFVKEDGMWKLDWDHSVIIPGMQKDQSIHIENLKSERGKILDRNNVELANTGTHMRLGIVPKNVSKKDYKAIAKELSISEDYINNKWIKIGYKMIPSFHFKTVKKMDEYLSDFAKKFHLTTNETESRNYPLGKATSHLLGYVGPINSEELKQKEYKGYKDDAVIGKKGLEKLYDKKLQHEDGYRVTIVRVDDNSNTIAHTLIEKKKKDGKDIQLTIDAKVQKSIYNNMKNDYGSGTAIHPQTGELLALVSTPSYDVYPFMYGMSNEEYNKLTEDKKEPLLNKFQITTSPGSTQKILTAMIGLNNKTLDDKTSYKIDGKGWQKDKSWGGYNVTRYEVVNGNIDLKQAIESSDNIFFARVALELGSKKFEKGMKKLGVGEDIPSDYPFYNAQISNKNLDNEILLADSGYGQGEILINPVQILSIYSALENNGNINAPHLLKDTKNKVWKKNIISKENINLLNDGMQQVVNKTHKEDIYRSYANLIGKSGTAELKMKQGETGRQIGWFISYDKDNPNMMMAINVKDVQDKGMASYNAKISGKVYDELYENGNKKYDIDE
PBP2x 5204, sequence (P59676 49-750): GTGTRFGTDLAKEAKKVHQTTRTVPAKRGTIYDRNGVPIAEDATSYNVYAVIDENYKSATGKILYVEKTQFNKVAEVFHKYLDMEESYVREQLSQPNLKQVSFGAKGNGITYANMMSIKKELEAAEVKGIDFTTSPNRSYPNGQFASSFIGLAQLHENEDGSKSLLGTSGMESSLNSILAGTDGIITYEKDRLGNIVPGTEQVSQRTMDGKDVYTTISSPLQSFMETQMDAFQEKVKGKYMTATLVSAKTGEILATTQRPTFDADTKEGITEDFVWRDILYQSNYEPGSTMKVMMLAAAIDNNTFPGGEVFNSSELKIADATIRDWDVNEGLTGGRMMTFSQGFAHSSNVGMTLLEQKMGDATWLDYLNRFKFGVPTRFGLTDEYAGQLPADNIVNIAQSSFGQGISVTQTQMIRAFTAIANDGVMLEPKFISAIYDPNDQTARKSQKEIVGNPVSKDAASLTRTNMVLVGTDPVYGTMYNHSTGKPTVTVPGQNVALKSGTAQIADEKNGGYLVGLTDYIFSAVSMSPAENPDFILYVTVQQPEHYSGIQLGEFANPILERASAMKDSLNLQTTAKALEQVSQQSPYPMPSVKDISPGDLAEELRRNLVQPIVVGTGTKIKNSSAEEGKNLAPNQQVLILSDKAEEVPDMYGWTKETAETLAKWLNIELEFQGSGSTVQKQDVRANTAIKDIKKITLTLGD

| SMILES | MIC [1] [µg/mL] | MIC [2] [µg/mL] | MIC [3] [µg/mL] | MIC [4] [µg/mL] | MIC [5] [µg/mL] | MIC [6] [µg/mL] | MIC [7] [µg/mL] | MIC [8] [µg/mL] | MIC [9] [µg/mL] | MIC [10] [µg/mL] | MIC [11] [µg/mL] | MIC [12] [µg/mL] | MIC [13] [µg/mL] | MIC [14] [µg/mL] | MIC [15] [µg/mL] | MIC [16] [µg/mL] | MIC [17] [µg/mL] | remaining activity at 1000 µM (PBP2a) [%] | PBP2x5204 RA [%] (PBP2x 5204) | activity at 1000 µM (PBP5fm) [%] | further results |
| --- | --- | --- | --- | --- | --- | --- | --- | --- | --- | --- | --- | --- | --- | --- | --- | --- | --- | --- | --- | --- | --- |
| CC1(C)S[C@@H]2[C@H](NC(=O)[C@H](N)c3ccccc3)C(=O)N2[C@H]1C(=O)O [Ampicillin, reference compound] | 0.5 (≈ 1.43 µM) | 128 (≈ 366 µM) | 2 (≈ 5.72 µM) | 2 (≈ 5.72 µM) | 64 (≈ 183 µM) | 64 (≈ 183 µM) | 4 (≈ 11.4 µM) | 256 (≈ 733 µM) | 0.25 (≈ 0.715 µM) | 0.5 (≈ 1.43 µM) | 0.5 (≈ 1.43 µM) | 2 (≈ 5.72 µM) | > 1020 | 0.25 (≈ 0.715 µM) | 1020 (≈ 2930 µM) | 1020 (≈ 2930 µM) | 16 (≈ 45.8 µM) | – | – | – | MIC [18]: 0.03 µg/mL (≈ 0.0859 µM); MIC [19]: 0.06 µg/mL (≈ 0.172 µM); MIC [20]: 0.06 µg/mL (≈ 0.172 µM) |
| NC(=O)c1cccc(NS(=O)(=O)c2cccc3cccnc23)c1 [compound 2, 3-(Quinoline-8-sulfonamido)benzamide] | > 512 | > 512 | > 512 | > 512 | > 512 | > 512 | > 512 | > 512 | > 512 | > 512 | > 512 | > 512 | > 512 | > 512 | > 512 | > 512 | > 512 | 58 | 123 | 39 | IC50 (PBP5fm; in the presence of 0.01% Triton X-100): 930 µM; MIC [18]: > 512 µg/mL; MIC [19]: > 512 µg/mL; MIC [20]: > 512 µg/mL; MIC [21]: > 512 µg/mL |
| O=S(=O)(Nc1ccc(O)cc1)c1cccc2cccnc12 [compound 3, N-(4-Hydroxyphenyl)quinoline-8-sulfonamide] | – | – | – | – | – | – | – | – | – | – | – | – | – | – | – | – | – | 67 | 80 | 65 | – |
| CCOc1ccc(NS(=O)(=O)c2ccc(C(=O)O)cc2)cc1 [compound 4, 4-(N-(4-Ethoxyphenyl)sulfamoyl)benzoic acid] | – | – | – | – | – | – | – | – | – | – | – | – | – | – | – | – | – | 83 | 101 | 100 | – |
| CCOc1ccc(S(=O)(=O)Nc2ccc(C(=O)O)cc2)cc1 [compound 5, 4-(4-Ethoxyphenylsulfonamido)benzoic acid] | – | – | – | – | – | – | – | – | – | – | – | – | – | – | – | – | – | 86 | 81 | 73 | – |
